Data as given in US20120189673A1, “POLYPEPTIDES AND USES THEREOF” (priority 2009, published 2012).
“Also recorded” adds a separate entry of the source. Where two headings read alike, the source gives them in different places.

What was measured:
[1] = system: thrombin induced fibrin network formation in normal human plasma; assay: Clotting assay: thrombin clotting time (TCT); type: biochemical
Method: (§1) Clotting assays. All clotting times were measured using an Amelung coagulometer. Activated partial thromboplastin time (aPTT) was measured by incubating the peptides diluted in sterile water at the indicated concentrations, with 100 μL citrated human plasma for 1 minute followed by the addition of 100 μL aPTT reagent (aPTT Automate, Diagnostica Stago) for 60 seconds at 37° C. Clotting was initiated by the addition of 100 μL of a 25-mM CaCl2 solution. In the prothombrin time assay (PT), clotting was initiated by the addition of 100 μL Thrombomax with calcium (PT reagent; Sigma-Aldrich). For measuring the thrombin clotting time (TCT), clotting was initiated by the addition of 100 μL Accuclot thrombin time reagent (TCT reagent; Sigma-Aldrich).

E. coli = assay: Viable count analysis, E. coli; type: cell-based, Escherichia coli; conditions: for antibacterial activity (cfu) / bactericidal activity in presence of human plasma: 10 mM Tris; for antibacterial activity (cfu): pH 7.4 buffer, dose-response (FIG. 34C); for bactericidal activity in presence of human plasma: 0.15 M NaCl, pH 7.4 with 20% human citrate plasma, versus buffer; for bactericidal activity in heat-inactivated plasma: 20% heat-inactivated human citrate plasma
Method: Viable count analysis. E. coli ATCC 25922 bacteria were grown to mid-logarithmic phase in Todd-Hewitt (TH) medium. Bacteria were washed and diluted in 10 mM Tris, pH 7.4 containing 5 mM glucose. E. coli ATCC 25922 (50 μl; 2×10^6 cfu/ml) were incubated, at 37° C. for 2 h with peptides at the indicated concentrations. Other experiments with the TFPI-peptides and LL-37 were performed in 10 mM Tris, pH 7.4, containing also 0.15 M NaCl, with normal or heat inactivated 20% citrate-plasma (PP). Serial dilutions of the incubation mixture were plated on TH agar, followed by incubation at 37° C. overnight and cfu determination.
Viable count analysis—E. coli strains were grown to mid-logarithmic phase in Todd-Hewitt (TH). P. aeruginosa strains were grown in TH overnight. Bacteria were washed and diluted in 10 mM Tris, pH 7.4 containing 5 mM glucose. 2×10^6 cfu/ml bacteria were incubated in 50 μl, at 37° C. for 2 h with the C-terminal TFPI-derived peptides GGL27, TKR22, or LIK17 at the indicated concentrations. Additional experiments were performed in 10 mM Tris, pH 7.4, containing 0.15 M NaCl, either alone or with 20% normal or heat inactivated citrate-plasma. Serial dilutions of the incubation mixture were plated on TH agar, followed by incubation at 37° C. overnight and cfu determination.

[2] = system: intrinsic pathway of coagulation in normal human plasma; assay: Clotting assay: activated partial thromboplastin time (aPTT); type: biochemical
Method: as §1

[3] = Liposome leakage assay (carboxyfluorescein release); conditions: for CF release from liposomes: 10 mM Tris-buffer; for share of the maximal CF release: within 5-10 minutes, 1 μM of peptides
From the text: Liposome preparation and leakage assay. The liposomes investigated were either zwitterionic (DOPC/cholesterol 60/40 mol/mol or DOPC without cholesterol) or anionic (DOPE/DOPG 75/25 mol/mol). DOPG (1,2-Dioleoyl-sn-Glycero-3-Phosphoglycerol, monosodium salt), DOPC (1,2-dioleoyl-sn-Glycero-3-phosphocholine), and DOPE (1,2-dioleoyl-sn-Glycero-3-phosphoetanolamine) were all from Avanti Polar Lipids (Alabaster, USA) and of >99% purity, while cholesterol (>99% purity), was from Sigma-Aldrich (St. Louis, USA). Due to the long, symmetric and unsaturated acyl chains of these phospholipids, several methodological advantages are reached. In particular, membrane cohesion is good, which facilitates very stable, unilamellar, and largely defect-free liposomes (observed from cryo-TEM) and well defined supported lipid bilayers (observed by ellipsometry and AFM), allowing detailed values on leakage and adsorption density to be obtained. The lipid mixtures were dissolved in chloroform, after which solvent was removed by evaporation under vacuum overnight. Subsequently, 10 mM Tris buffer, pH 7.4, was added together with 0.1 M carboxyfluorescein (CF) (Sigma, St. Louis, USA). After hydration, the lipid mixture was subjected to eight freeze-thaw cycles consisting of freezing in liquid nitrogen and heating to 60° C. Unilamellar liposomes of about Ø140 nm were generated by multiple extrusions through polycarbonate filters (pore size 100 nm) mounted in a LipoFast miniextruder (Avestin, Ottawa, Canada) at 22° C. Untrapped CF was removed by two subsequent gel filtrations (Sephadex G-50, GE Healthcare, Uppsala, Sweden) at 22° C., with Tris buffer as eluent. CF release from the liposomes was determined by monitoring the emitted fluorescence at 520 nm from a liposome dispersion (10 mM lipid in 10 mM Tris, pH 7.4). An absolute leakage scale was obtained by disrupting the liposomes at the end of each experiment through addition of 0.8 mM Triton X-100 (Sigma-Aldrich, St. Louis, USA). A SPEX-fluorolog 1650 0.22-m double spectrometer (SPEX Industries, Edison, USA) was used for the liposome leakage assay in Tris buffer in the absence and presence of liposomes under conditions described above. Measurements were performed in triplicate at 37° C.
Liposome preparation and leakage assay—The liposomes investigated were anionic (DOPE/DOPG 75125 mol/mol). DOPG (1,2-Dioleoyl-sn-Glycero-3-Phosphoglycerol, monosodium salt) and DOPE (1,2-dioleoyl-sn-Glycero-3-phoshoetanolamine) were both from Avanti Polar Lipids (Alabaster, USA) and of >99% purity. […] CF release from the liposomes was determined by monitoring the emitted fluorescence at 520 nm from a liposome dispersion (10 µM lipid in 10 mM Tris, pH 7.4). […]

[4] = system: extrinsic pathway of coagulation in normal human plasma; assay: Clotting assay: prothrombin time (PT); type: biochemical
Method: as §1

Sequence	thrombin clotting time (TCT) [1]	thrombin clotting time (TCT) ([1]; listed as GGL-27)	antibacterial activity (cfu) (E. coli)	bactericidal activity in presence of human plasma (E. coli)	bactericidal activity in heat-inactivated plasma (E. coli)	activated partial thromboplastin time (aPTT) [2]	activated partial thromboplastin time (aPTT) ([2]; listed as GGL-27)	CF release from liposomes [3]	share of the maximal CF release [3] [%]	prothrombin time (PT) [4]	prothrombin time (PT) ([4]; listed as GGL-27)
GGLIKTKRKRKKQRVKIAYEEIFVKNM [GGL27, C-terminal peptide of TFPI, plasmin-generated]	not significantly affected	impairs coagulation in a dose dependent manner	significant antibacterial activity	enhanced in human plasma; also recorded: significantly enhanced	largely abolished in heat-inactivated plasma; also recorded: abolished the potentiation	impair the intrinsic pathway of coagulation	impairs coagulation in a dose dependent manner	caused CF release	~80	affected prothrombin time	impairs coagulation in a dose dependent manner
LIKTKRKRKKQRVKIAY [LIK17]	not significantly affected	–	significant antibacterial activity	significantly enhanced	abolished the potentiation	impair the intrinsic pathway of coagulation	–	caused CF release	~80	affected prothrombin time	–
